PubChem BioAssay (NCI)
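Five concentrations, 48 hours, 96-well plates. At the TGI there is no net growth.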

Assays:
Experiment in all cases: inhibition of tumour cell growth, NCI panel, 48 h
[1] = system: UACC-62 melanoma
[2] = system: DMS 273 small cell lung
[3] = system: NCI-H226 lung
[4] = system: M19-MEL melanoma
[5] = system: OVCAR-3 ovarian
[6] = system: RXF-631 renal
[7] = system: HL-60(TB) leukemia
[8] = system: U251 CNS
[9] = system: SK-MEL-5 melanoma
[10] = system: TK-10 renal
[11] = system: HOP-62 NSCLC
[12] = system: HCT-116 colon
[13] = system: A498 renal
[14] = system: RXF 393 renal
[15] = system: LXFL 529 NSCLC
[16] = system: DMS 114 small cell lung
[17] = system: SF-268 CNS
[18] = system: SK-MEL-28 melanoma
[19] = system: SW-620 colon
[20] = system: EKVX NSCLC
[21] = system: UO-31 renal
[22] = system: SNB-75 CNS
[23] = system: SF-295 CNS
[24] = system: NCI-H23 lung
[25] = system: UACC-257 melanoma
[26] = system: ACHN renal
[27] = system: SF-539 CNS
[28] = system: SK-OV-3 ovarian
[29] = system: K-562 leukemia
[30] = system: XF 498 CNS
[31] = system: SK-MEL-2 melanoma
[32] = system: 786-0 renal
[33] = system: SN12C renal
[34] = system: MOLT-4 leukemia
[35] = system: MALME-3M melanoma
[36] = system: M14 melanoma
[37] = system: HCC-2998 colon
[38] = system: OVCAR-8 ovarian
[39] = system: SNB-19 CNS
[40] = system: NCI-H460 lung
[41] = system: KM12 colon
[42] = system: SNB-78 CNS
[43] = system: OVCAR-5 ovarian
[44] = system: A549 NSCLC
[45] = system: DLD-1 colon
[46] = system: HOP-92 NSCLC
[47] = system: IGROV1 ovarian
[48] = system: CAKI-1 renal
[49] = system: HT29 colon
[50] = system: SR leukemia
[51] = system: KM20L2 colon
[52] = system: OVCAR-4 ovarian
[53] = system: CCRF-CEM leukemia
[54] = system: HCT-15 colon
[55] = system: LOX IMVI melanoma
[56] = system: NCI-H522 lung
[57] = system: RPMI-8226 leukemia
[58] = system: COLO 205 colon
[59] = system: HOP-18 NSCLC

Measured: TGI

O=C1CCCC(=O)N1CCc1c[nH]c2ccccc12
not listed: [54] | [55] | [56] | [57] | [58] | [59]
> 100 µM: all other assays above

CC(=O)C(CN(Cc1ccccc1)Cc1ccccc1)C(c1ccccc1)c1c(O)c2ccccc2oc1=O (stereo not drawn)
not listed: [2] | [16] | [18] | [34] | [37] | [58] | [59]
> 100 µM: all other assays above

COc1ccc(C(=O)O)c2c(=O)c3cccnc3[nH]c12
not listed: [2] | [3] | [5] | [9] | [15] | [17] | [19] | [22] | [27] | [29] | [30] | [31] | [32] | [33] | [35] | [37] | [45] | [48] | [52] | [54] | [55] | [57] | [58] | [59]
> 100 µM: all other assays above

N#CCCN(c1ccc(C=Nc2ccccc2Cl)cc1)S(=O)(=O)c1ccccc1
not listed: [53]
> 100 µM: all other assays above
